PubChem BioAssay AID1919006 (Molecular Pharmacology Branch, DTP, NCI, 2023)

Test system: 885512-296-R-J2-PDC complex spheroid growth, % test/control
Assay: Anticancer human tumor 885512-296-R-J2-PDC patient-derived breast carcinoma cell line growth inhibition [AhR]
Conditions: for IC50: curve of first compound; for viability, T/C: stronger effect = lower value
Summary of the method: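 Spheroids combined tumor cells with HUVEC endothelial cells and human MSCs as stroma. AhR antagonists were paired with standard or investigational drugs, each dosed in half-log steps down from near clinical Cmax, or from 10 microM where Cmax was unknown.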

[1] = second compound 0.1 µM, first compound 0.0316 µM
[2] = second compound 0.1 µM, first compound 0.1 µM
[3] = second compound 0.1 µM, first compound 0.316 µM
[4] = second compound 0.1 µM, first compound 1 µM
[5] = second compound 0.1 µM, first compound 3.16 µM
[6] = second compound 0.1 µM, first compound 10 µM
[7] = second compound 0.316 µM, first compound 0.0316 µM
[8] = second compound 0.316 µM, first compound 0.1 µM
[9] = second compound 0.316 µM, first compound 0.316 µM
[10] = second compound 0.316 µM, first compound 1 µM
[11] = second compound 0.316 µM, first compound 3.16 µM
[12] = second compound 0.316 µM, first compound 10 µM
[13] = second compound 1 µM, first compound 0.0316 µM
[14] = second compound 1 µM, first compound 0.1 µM
[15] = second compound 1 µM, first compound 0.316 µM
[16] = second compound 1 µM, first compound 1 µM
[17] = second compound 1 µM, first compound 3.16 µM
[18] = second compound 1 µM, first compound 10 µM
[19] = second compound 3.16 µM, first compound 0.0316 µM
[20] = second compound 3.16 µM, first compound 0.1 µM
[21] = second compound 3.16 µM, first compound 0.316 µM
[22] = second compound 3.16 µM, first compound 1 µM
[23] = second compound 3.16 µM, first compound 3.16 µM
[24] = second compound 3.16 µM, first compound 10 µM
[25] = second compound 10 µM, first compound 0.0316 µM
[26] = second compound 10 µM, first compound 0.1 µM
[27] = second compound 10 µM, first compound 0.316 µM
[28] = second compound 10 µM, first compound 1 µM
[29] = second compound 10 µM, first compound 3.16 µM
[30] = second compound 10 µM, first compound 10 µM
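Also: spheroids exposed to compounds for seven days.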

CC(C)CC(NC(=O)C(Cc1ccccc1)NC(=O)c1cnccn1)B(O)O (stereo not given) + Cc1cncc(-c2nc(NCCc3c[nH]c4ccccc34)c3ncn(C(C)C)c3n2)c1 was tested, and the IC50 (second compound 0.1 µM) was 6.75 nM, the IC50 (second compound 0.316 µM) was 6.48 nM and the IC50 (second compound 1 µM) was 5.6 nM. It also gave an IC50 (second compound 3.16 µM) of 3.63 nM, an IC50 (second compound 10 µM) of less than 0.949 nM and a viability, T/C (second compound 0.1 µM, first compound 0.000949 µM) of 112%. It also gave a viability, T/C (second compound 0.1 µM, first compound 0.003 µM) of 114%, a viability, T/C (second compound 0.1 µM, first compound 0.00949 µM) of 23.6% and a viability, T/C (second compound 0.1 µM, first compound 0.03 µM) of 1.75%. It also gave a viability, T/C (second compound 0.1 µM, first compound 0.0949 µM) of 0.64%, a viability, T/C (second compound 0.1 µM, first compound 0.3 µM) of 0.17% and a viability, T/C (second compound 0.316 µM, first compound 0.000949 µM) of 103%. It also gave a viability, T/C (second compound 0.316 µM, first compound 0.003 µM) of 99%, a viability, T/C (second compound 0.316 µM, first compound 0.00949 µM) of 25.7% and a viability, T/C (second compound 0.316 µM, first compound 0.03 µM) of 1.08%. It also gave a viability, T/C (second compound 0.316 µM, first compound 0.0949 µM) of 0.32%, a viability, T/C (second compound 0.316 µM, first compound 0.3 µM) of 0.14% and a viability, T/C (second compound 1 µM, first compound 0.000949 µM) of 79.2%. For the same compound, the viability, T/C (second compound 1 µM, first compound 0.003 µM) was 87.7%, the viability, T/C (second compound 1 µM, first compound 0.00949 µM) was 21.8% and the viability, T/C (second compound 1 µM, first compound 0.03 µM) was 0.9%. For the same compound, the viability, T/C (second compound 1 µM, first compound 0.0949 µM) was 0.08%, the viability, T/C (second compound 1 µM, first compound 0.3 µM) was 0.13% and the viability, T/C (second compound 3.16 µM, first compound 0.000949 µM) was 52.5%. For the same compound, the viability, T/C (second compound 3.16 µM, first compound 0.003 µM) was 61%, the viability, T/C (second compound 3.16 µM, first compound 0.00949 µM) was 16.3% and the viability, T/C (second compound 3.16 µM, first compound 0.03 µM) was 0.59%. The viability, T/C (second compound 3.16 µM, first compound 0.0949 µM) was 0.07%, the viability, T/C (second compound 3.16 µM, first compound 0.3 µM) was 0.16% and the viability, T/C (second compound 10 µM, first compound 0.000949 µM) was 16.7%. It also gave a viability, T/C (second compound 10 µM, first compound 0.003 µM) of 16.9%, a viability, T/C (second compound 10 µM, first compound 0.00949 µM) of 1.8% and a viability, T/C (second compound 10 µM, first compound 0.03 µM) of 0.43%. The viability, T/C (second compound 10 µM, first compound 0.0949 µM) was 0.16% and the viability, T/C (second compound 10 µM, first compound 0.3 µM) was 0.22%.
With COc1cc(Nc2ncc3c(n2)-c2ccc(Cl)cc2C(c2c(F)cccc2OC)=NC3)ccc1C(=O)O + Cc1cncc(-c2nc(NCCc3c[nH]c4ccccc34)c3ncn(C(C)C)c3n2)c1 the IC50 (second compound 0.1 µM) was 31.6 nM, the IC50 (second compound 0.316 µM) was 48.3 nM and the IC50 (second compound 1 µM) was less than 31.6 nM. The IC50 (second compound 3.16 µM) was less than 31.6 nM, the IC50 (second compound 10 µM) was less than 31.6 nM and the viability, T/C [1] was 49.5%. It also gave a viability, T/C [2] of 46.1%, a viability, T/C [3] of 47.6% and a viability, T/C [4] of 50.6%. It also gave a viability, T/C [5] of 30.2%, a viability, T/C [6] of 32% and a viability, T/C [7] of 53.3%. It also gave a viability, T/C [8] of 43.6%, a viability, T/C [9] of 48% and a viability, T/C [10] of 42.4%. The viability, T/C [11] was 45.8%, the viability, T/C [12] was 34.2% and the viability, T/C [13] was 44.5%. It also gave a viability, T/C [14] of 37.8%, a viability, T/C [15] of 46% and a viability, T/C [16] of 41.7%. It also gave a viability, T/C [17] of 39.7%, a viability, T/C [18] of 39.5% and a viability, T/C [19] of 32.6%. The viability, T/C [20] was 35.6%, the viability, T/C [21] was 33.6% and the viability, T/C [22] was 34%. It also gave a viability, T/C [23] of 32.2%, a viability, T/C [24] of 31.2% and a viability, T/C [25] of 16.2%. It also gave a viability, T/C [26] of 12.8%, a viability, T/C [27] of 13.3% and a viability, T/C [28] of 14.8%. It also gave a viability, T/C [29] of 17.2% and a viability, T/C [30] of 17.6%.
Cn1ncnc1C1c2n[nH]c(=O)c3cc(F)cc(c23)NC1c1ccc(F)cc1 (stereo not given) + Cc1cncc(-c2nc(NCCc3c[nH]c4ccccc34)c3ncn(C(C)C)c3n2)c1 was tested, and the IC50 (second compound 0.1 µM) was greater than 100 nM, the IC50 (second compound 0.316 µM) was greater than 100 nM and the IC50 (second compound 1 µM) was greater than 100 nM. For the same compound, the IC50 (second compound 3.16 µM) was 35.2 nM, the IC50 (second compound 10 µM) was less than 0.316 nM and the viability, T/C (second compound 0.1 µM, first compound 0.000316 µM) was 116%. It also gave a viability, T/C (second compound 0.1 µM, first compound 0.001 µM) of 112%, a viability, T/C (second compound 0.1 µM, first compound 0.00316 µM) of 99.8% and a viability, T/C (second compound 0.1 µM, first compound 0.01 µM) of 99.1%. It also gave a viability, T/C [1] of 82.4%, a viability, T/C [2] of 56.2% and a viability, T/C (second compound 0.316 µM, first compound 0.000316 µM) of 120%. The viability, T/C (second compound 0.316 µM, first compound 0.001 µM) was 108%, the viability, T/C (second compound 0.316 µM, first compound 0.00316 µM) was 105% and the viability, T/C (second compound 0.316 µM, first compound 0.01 µM) was 87.4%. It also gave a viability, T/C [7] of 76%, a viability, T/C [8] of 53.5% and a viability, T/C (second compound 1 µM, first compound 0.000316 µM) of 87.1%. For the same compound, the viability, T/C (second compound 1 µM, first compound 0.001 µM) was 99.5%, the viability, T/C (second compound 1 µM, first compound 0.00316 µM) was 79.4% and the viability, T/C (second compound 1 µM, first compound 0.01 µM) was 74.9%. The viability, T/C [13] was 68.3%, the viability, T/C [14] was 51.8% and the viability, T/C (second compound 3.16 µM, first compound 0.000316 µM) was 55.2%. The viability, T/C (second compound 3.16 µM, first compound 0.001 µM) was 58.4%, the viability, T/C (second compound 3.16 µM, first compound 0.00316 µM) was 54.6% and the viability, T/C (second compound 3.16 µM, first compound 0.01 µM) was 54.5%. For the same compound, the viability, T/C [19] was 49.2%, the viability, T/C [20] was 45.7% and the viability, T/C (second compound 10 µM, first compound 0.000316 µM) was 23.8%. It also gave a viability, T/C (second compound 10 µM, first compound 0.001 µM) of 21.6%, a viability, T/C (second compound 10 µM, first compound 0.00316 µM) of 21.3% and a viability, T/C (second compound 10 µM, first compound 0.01 µM) of 18.1%. For the same compound, the viability, T/C [25] was 22.1% and the viability, T/C [26] was 21.6%.
NS(=O)(=O)OCC1CC(n2ccc3c(NC4CCc5ccccc54)ncnc32)CC1O (stereo not given) + Cc1cncc(-c2nc(NCCc3c[nH]c4ccccc34)c3ncn(C(C)C)c3n2)c1 was tested, and the IC50 (second compound 0.1 µM) was 90.4 nM, the IC50 (second compound 0.316 µM) was 89.4 nM and the IC50 (second compound 1 µM) was 77.4 nM. The IC50 (second compound 3.16 µM) was 43.6 nM, the IC50 (second compound 10 µM) was less than 31.6 nM and the viability, T/C [1] was 96.2%. The viability, T/C [2] was 45.6%, the viability, T/C [3] was 16.5% and the viability, T/C [4] was 8.26%. For the same compound, the viability, T/C [5] was 5.94%, the viability, T/C [6] was 6.36% and the viability, T/C [7] was 89.7%. For the same compound, the viability, T/C [8] was 45.6%, the viability, T/C [9] was 17.4% and the viability, T/C [10] was 6.34%. The viability, T/C [11] was 6.04%, the viability, T/C [12] was 5.52% and the viability, T/C [13] was 81.3%. It also gave a viability, T/C [14] of 41%, a viability, T/C [15] of 13.9% and a viability, T/C [16] of 5.67%. For the same compound, the viability, T/C [17] was 4.18%, the viability, T/C [18] was 4.92% and the viability, T/C [19] was 58.5%. It also gave a viability, T/C [20] of 28%, a viability, T/C [21] of 8.09% and a viability, T/C [22] of 3.67%. It also gave a viability, T/C [23] of 3.02%, a viability, T/C [24] of 2.73% and a viability, T/C [25] of 10.3%. It also gave a viability, T/C [26] of 8.3%, a viability, T/C [27] of 3.54% and a viability, T/C [28] of 2.33%. It also gave a viability, T/C [29] of 1.76% and a viability, T/C [30] of 1.73%.
O=C(C=Cc1cccc(S(=O)(=O)Nc2ccccc2)c1)NO + Cc1cncc(-c2nc(NCCc3c[nH]c4ccccc34)c3ncn(C(C)C)c3n2)c1 showed an IC50 (second compound 0.1 µM) of 1010 nM, an IC50 (second compound 0.316 µM) of 1340 nM and an IC50 (second compound 1 µM) of 680 nM. The IC50 (second compound 3.16 µM) was 153 nM, the IC50 (second compound 10 µM) was less than 31.6 nM and the viability, T/C [1] was 77.7%. It also gave a viability, T/C [2] of 93.9%, a viability, T/C [3] of 70.5% and a viability, T/C [4] of 45%. For the same compound, the viability, T/C [5] was 30.8%, the viability, T/C [6] was 7.26% and the viability, T/C [7] was 86.3%. The viability, T/C [8] was 80.5%, the viability, T/C [9] was 74.2% and the viability, T/C [10] was 50%. For the same compound, the viability, T/C [11] was 37.5%, the viability, T/C [12] was 7.14% and the viability, T/C [13] was 96.1%. The viability, T/C [14] was 72.5%, the viability, T/C [15] was 65.2% and the viability, T/C [16] was 41.1%. It also gave a viability, T/C [17] of 31.1%, a viability, T/C [18] of 9.39% and a viability, T/C [19] of 52.2%. For the same compound, the viability, T/C [20] was 62%, the viability, T/C [21] was 39.5% and the viability, T/C [22] was 31.8%. It also gave a viability, T/C [23] of 21.8%, a viability, T/C [24] of 10.2% and a viability, T/C [25] of 20.6%. It also gave a viability, T/C [26] of 20.6%, a viability, T/C [27] of 19.5% and a viability, T/C [28] of 16%. For the same compound, the viability, T/C [29] was 12.6% and the viability, T/C [30] was 5.42%.
